From USRE39634E1, “Bisarylimidazoly fatty acid amide hydrolase inhibitors” (Bristol-Myers Squibb Company, priority 2001, dated 2007) come the findings set out here.

Structures are written as SMILES.

In one assay the target is T1, human FAAH (Homo sapiens, UniProt O00519).
T1 construct: expressed in transfected cells; host or cells: H4 cells stably transfected with human FAAH (Geneticin selection); crude membrane homogenates
T1 sequence (O00519 1-579): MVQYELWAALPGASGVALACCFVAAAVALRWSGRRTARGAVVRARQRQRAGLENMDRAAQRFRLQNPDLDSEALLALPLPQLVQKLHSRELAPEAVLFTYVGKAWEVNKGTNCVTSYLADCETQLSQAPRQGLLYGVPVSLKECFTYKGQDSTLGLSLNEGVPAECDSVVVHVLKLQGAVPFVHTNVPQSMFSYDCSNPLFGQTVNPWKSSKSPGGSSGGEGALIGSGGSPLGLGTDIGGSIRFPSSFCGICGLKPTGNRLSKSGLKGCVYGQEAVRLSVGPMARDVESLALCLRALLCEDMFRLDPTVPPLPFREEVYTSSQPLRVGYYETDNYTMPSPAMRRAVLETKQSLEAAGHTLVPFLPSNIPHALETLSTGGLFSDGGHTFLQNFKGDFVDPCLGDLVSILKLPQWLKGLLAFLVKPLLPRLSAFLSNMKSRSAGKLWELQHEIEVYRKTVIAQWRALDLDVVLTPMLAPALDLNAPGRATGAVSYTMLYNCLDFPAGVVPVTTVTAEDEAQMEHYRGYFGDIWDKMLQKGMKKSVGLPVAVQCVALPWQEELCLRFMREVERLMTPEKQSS
In words: Determination of FAAH activity (membrane homogenates of H4-FAAH cells, [3H]-anandamide hydrolysis). The class given is biochemical. Conditions: transfected human FAAH, H4-FAAH cell membranes, 10 μM anandamide, room temperature, one hour. As to the method: Homogenates of crude membranes were prepared from H4 cells that express transfected human FAAH (H4-FAAH cells). Briefly, cells were grown in DMEM supplemented with 10% FBS and Geneticin at a final concentration of 500 μg/ml (Gibco BRL, Rockville, Md.). Confluent cultures of H4-FAAH cells were rinsed twice with phosphate-buffered saline [138 mM NaCl, 4.1 mM KCl, 5.1 mM Na2PO4, 1.5 mM KH2PO4 (pH 7.5), 37° C.] and incubated for 5-10 min. at 4° C. in lysis buffer [1 mM sodium bicarbonate]. Cells were transferred from plates to polypropylene tubes (16×100 mm), homogenized and centrifuged at 32,000×g for 30 min. Pellets were resuspended by homogenization in lysis buffer and centrifuged at 32,000×g for 30 min. Pellets were resuspended in lysis buffer (15-20 μg protein/ml) then stored at −80° C. until needed. On the day of an experiment, membranes were diluted to 2.67 μg protein/ml in 125 mM Tris-Cl, pH 9.0
Activity of FAAH was measured using a modification of the method described by Omeir et al., 1995 (Life Sci 56:1999, 1995). Membrane homogenates (240 ng protein) were incubated at room temperature for one hour with 1.67 nM anandamide [ethanolamine 1-^3H] (American Radiolabeled Chemical Inc., St Louis, Mo.) and 10 μM anandamide (Sigma/RBI, St. Louis, Mo.) in the absence and presence of inhibitors. The reaction was stopped by the addition of 1 volume of a solution of methanol and dichloroethane (1:1). The mixture was shaken and then centrifuged at 1000×g for 15 min. to separate the aqueous and organic phases. An aliquot of the aqueous phase, containing [^3H]-ethanolamine was withdrawn and counted by scintillation spectroscopy. Data were expressed as the percentage of [^3H]-ethanolamine formed versus vehicle, after subtraction of the background radioactivity determined in the presence of 10 μM arachidonyl trifluoromethyl ketone (ATFMK), an inhibitor of FAAH. IC50 values were determined using a four-parameter logistic equation for dose-response curves.

For the next assay, the system named is animals. In words: Hargreaves Test (acute thermal pain). The class given is in vivo. Conditions: FIG. 2. The source says:
FIG. 2 illustrates results from the Hargreaves Test used for measuring acute thermal pain. The single asterisk (*) applies when p is less than 0.05 whereas the double asterisk (**) applies when p is less than 0.01. n=6.

Assay [1] concerns animals with a neuropathic injury. The assay is described as follows: Chung model of neuropathic pain. The class given is in vivo. The source says:
FIG. 3 illustrates results from the Chung Model used for measuring neuropathic pain. The single asterisk (*) applies when p is less than 0.05 whereas the double asterisk (**) applies when p is less than 0.01. n=9-10.

For a further assay, the system named is rat. The assay is described as follows: Rat formalin test (acute and chronic chemo-induced pain). The class given is in vivo. As to the method:
FIG. 1A illustrates results from a rat formalin model used for testing acute chemo-induced pain. The single asterisk (*) applies when p is less than 0.05.
FIG. 1B illustrates results from a rat formalin model used for testing chronic chemo-induced pain. The single asterisk (*) applies when p is less than 0.05.
In FIG. 1., example 1, was active in phase I (acute phase) and phase II (chronic phase) of the rat formalin test. In animals that received 25 mg/kg, i.v, of Example 1, the number of paw flinches was reduced by nearly 40% in the first 10 minutes after administration of formalin. Paw flinches were reduced by approximately 30% over the following 50 minutes.

In general, IC50 refers to the midpoint of a concentration-inhibition curve. A lower IC50 goes with greater potency. The molecule `Cc1nc(-c2ccccc2)c(-c2ccccc2)n1CCCCCCNC(=O)Oc1ccccc1F` [Example 1, [6-(2-Methyl-4,5-diphenyl-imidazol-1-yl)-hexyl]-carbamic acid 2-fluoro-phenyl ester] displayed an IC50 against human FAAH below 10 nM. Besides, in the assay with animals, the “latency to paw withdrawal” value was “increased significantly”. Further, the “onset of anti-neuropathic effect” value in assay [1] (20 mg/kg, versus 100 mg/kg gabapentin) is on record as “earlier onset of action compared to 100 mg/kg gabapentin”. The “threshold for withdrawal of the injured paw” value in assay [1] (light touch stimulus, FIG. 3) is reported as “increased (toward normal) in a dose-dependent fashion”. Also, in the assay on rat (25 mg/kg, i.v., first 10 minutes after administration of formalin), the “reduction of number of paw flinches” value was around 40%. Further, the “reduction of paw flinches” value with rat (25 mg/kg, i.v., following 50 minutes) is reported as “approximately 30%”. In the assay on rat (FIG. 1), the “activity in phase I (acute phase) and phase II (chronic phase) of the rat formalin test” value is “active”.
Consider `COc1ccc(OC(=O)Nc2ccc(OCCn3c(C)nc(-c4ccccc4)c3-c3ccccc3)cc2)cc1` [Example 64, {4-[2-(2-Methyl-4,5-diphenyl-imidazol-1-yl)-ethoxy]-phenyl}-carbamic acid 4-methoxy-phenyl ester], for which, at human FAAH, the IC50 was 1000 to 10000 nM.
The same measure, in the same setting: the result for `Cc1nc(-c2ccccc2)c(-c2ccccc2)n1CCCOc1ccc(NC(=O)Oc2ccccc2F)cc1` [Example 66, {4-[3-(2-Methyl-4,5-diphenyl-imidazol-1-yl)-propoxy]-phenyl}-carbamic acid 2-fluoro-phenyl ester] reads 1000 to 10000 nM; that for `Cc1nc(-c2ccccc2)c(-c2ccccc2)n1CCCOc1ccc(NC(=O)Oc2c(F)cccc2F)cc1` [Example 69, {4-[3-(2-Methyl-4,5-diphenyl-imidazol-1-yl)-propoxy]-phenyl}-carbamic acid 2,6-difluoro-phenyl ester], 1000 to 10000 nM; that for `CCOC(=O)Nc1ccc(OCCn2c(C)nc(-c3ccccc3)c2-c2ccccc2)cc1` [Example 70, {4-[2-(2-Methyl-4,5-diphenyl-imidazol-1-yl)-ethoxy]-phenyl}-carbamic acid ethyl ester], 1000 to 10000 nM.
In turn, `Cc1nc(-c2ccccc2)c(-c2ccccc2)n1CCCCCC(C)NC(=O)Oc1ccccc1F` (stereo not drawn) [Example 71, [1-Methyl-6-(2-methyl-4,5-diphenyl-imidazol-1-yl)-hexyl]-carbamic acid 2-fluoro-phenyl ester] gave an IC50 against human FAAH below 10 nM.
Same read-out and setting: the figure for `CCC(CCCCCn1c(C)nc(-c2ccccc2)c1-c1ccccc1)NC(=O)Oc1ccccc1F` (stereo not drawn) [Example 72, [1-Ethyl-6-(2-methyl-4,5-diphenyl-imidazol-1-yl)-hexyl]-carbamic acid 2-fluoro-phenyl ester] is 10 to 100 nM.
Still for that read-out and setting: the figure for `Cc1nc(-c2ccccc2)c(-c2ccccc2)n1CCCCCC(NC(=O)Oc1ccccc1F)C(C)C` (stereo not drawn) [Example 73, [1-Isopropyl-6-(2-methyl-4,5-diphenyl-imidazol-1-yl)-hexyl]-carbamic acid 2-fluoro-phenyl ester] is 100 to 1000 nM.
On the same count and under the same terms, the result for `Cc1nc(-c2ccccc2)c(-c2ccccc2)n1CCCCCC(NC(=O)Oc1ccccc1F)c1ccccc1` (stereo not drawn) [Example 74, [6-(2-Methyl-4,5-diphenyl-imidazol-1-yl)-1-phenyl-hexyl]-carbamic acid 2-fluoro-phenyl ester] reads 100 to 1000 nM.
